Experimental data reported in ChEMBL document CHEMBL1201862, “PubChem BioAssay data set” (2004).
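Dose response: 5 concentrations. Exposure: 48 h. Format: 96-well plates. Endpoint: linear interpolation; highest concentration if not reached. GI50 is the concentration that inhibits growth by half.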 Active and inactive are the calls of the source. Cut-off read from the data, not from the text of the source: active = GI50 up to about 1.1 µM and inactive = higher.

Experiments:
Assay in all cases: DTP human tumour cell line panel, 48 h
[1] = system: LXFL 529
[2] = system: HOP-18
[3] = system: HL-60
[4] = system: U-251
[5] = system: TK-10
[6] = system: UACC-257
[7] = system: MOLT-4
[8] = system: SF-268
[9] = system: SK-MEL-2
[10] = system: M19-MEL
[11] = system: UACC-62
[12] = system: UO-31
[13] = system: DMS-114
[14] = system: SNB-78
[15] = system: A549
[16] = system: KM12
[17] = system: M14
[18] = system: NCI-H460
[19] = system: A498
[20] = system: SR
[21] = system: HCC 2998
[22] = system: K562
[23] = system: SW-620
[24] = system: Malme-3M
[25] = system: SK-OV-3
[26] = system: EKVX
[27] = system: HOP-92
[28] = system: OVCAR-8
[29] = system: KM-20L2
[30] = system: HOP-62
[31] = system: SNB-75
[32] = system: SF-539
[33] = system: XF498
[34] = system: HCT-116
[35] = system: RPMI-8226
[36] = system: CCRF-CEM
[37] = system: SN12C
[38] = system: NCI-H226
[39] = system: IGROV-1
[40] = system: SK-MEL-5
[41] = system: ACHN
[42] = system: DLD-1
[43] = system: 786-0
[44] = system: SNB-19
[45] = system: HCT-15
[46] = system: DMS-273
[47] = system: CAKI-1
[48] = system: HT-29
[49] = system: OVCAR-5
[50] = system: OVCAR-4
[51] = system: SK-MEL-28
[52] = system: NCI-H23
[53] = system: SF-295
[54] = system: RXF 393
[55] = system: NCI-H522
[56] = system: RXF 631
[57] = system: OVCAR-3
[58] = system: COLO 205
[59] = system: LOX IMVI

C/N=c1\ss/c(=N\C(=S)N(C)C)n1C
GI50 [1]: > 100 µM (inactive) | GI50 [2]: > 100 µM (inactive) | GI50 [3]: > 100 µM (inactive) | GI50 [4]: > 100 µM (inactive) | GI50 [5]: 41.1 µM (inactive) | GI50 [6]: > 100 µM (inactive) | GI50 [7]: > 100 µM (inactive) | GI50 [8]: > 100 µM (inactive) | GI50 [9]: > 100 µM (inactive) | GI50 [10]: > 100 µM (inactive) | GI50 [11]: > 100 µM (inactive) | GI50 [12]: > 100 µM (inactive) | GI50 [13]: > 100 µM (inactive) | GI50 [14]: > 100 µM (inactive) | GI50 [15]: > 100 µM (inactive) | GI50 [16]: > 100 µM (inactive) | GI50 [17]: > 100 µM (inactive) | GI50 [18]: > 100 µM (inactive) | GI50 [19]: > 100 µM (inactive) | GI50 [20]: > 100 µM (inactive) | GI50 [21]: > 100 µM (inactive) | GI50 [22]: > 100 µM (inactive) | GI50 [23]: > 100 µM (inactive) | GI50 [24]: > 100 µM (inactive) | GI50 [25]: > 100 µM (inactive) | GI50 [26]: > 100 µM (inactive) | GI50 [27]: > 100 µM (inactive) | GI50 [28]: > 100 µM (inactive) | GI50 [29]: > 100 µM (inactive) | GI50 [30]: > 100 µM (inactive) | GI50 [31]: > 100 µM (inactive) | GI50 [32]: > 100 µM (inactive) | GI50 [33]: > 100 µM (inactive) | GI50 [34]: > 100 µM (inactive) | GI50 [35]: > 100 µM (inactive) | GI50 [36]: > 100 µM (inactive) | GI50 [37]: > 100 µM (inactive) | GI50 [38]: 27.5 µM (inactive) | GI50 [39]: > 100 µM (inactive) | GI50 [40]: > 100 µM (inactive) | GI50 [41]: > 100 µM (inactive) | GI50 [42]: > 100 µM (inactive) | GI50 [43]: > 100 µM (inactive) | GI50 [44]: > 100 µM (inactive) | GI50 [45]: > 100 µM | GI50 [46]: > 100 µM (inactive) | GI50 [47]: > 100 µM (inactive) | GI50 [48]: > 100 µM (inactive) | GI50 [49]: > 100 µM (inactive) | GI50 [50]: > 100 µM (inactive) | GI50 [51]: > 100 µM (inactive) | GI50 [52]: > 100 µM (inactive) | GI50 [53]: > 100 µM (inactive) | GI50 [54]: > 100 µM (inactive)

Cc1ccc(NC(=S)SCCC(=O)O)cc1
GI50 [1]: > 100 µM (inactive) | GI50 [55]: > 100 µM (inactive) | GI50 [3]: > 100 µM (inactive) | GI50 [56]: > 100 µM (inactive) | GI50 [4]: > 100 µM (inactive) | GI50 [5]: > 100 µM (inactive) | GI50 [6]: > 100 µM (inactive) | GI50 [7]: > 100 µM (inactive) | GI50 [8]: 71.6 µM (inactive) | GI50 [9]: > 100 µM (inactive) | GI50 [12]: > 100 µM (inactive) | GI50 [13]: > 100 µM (inactive) | GI50 [14]: > 100 µM (inactive) | GI50 [15]: > 100 µM (inactive) | GI50 [16]: > 100 µM (inactive) | GI50 [17]: > 100 µM (inactive) | GI50 [18]: > 100 µM (inactive) | GI50 [19]: > 100 µM (inactive) | GI50 [20]: > 100 µM (inactive) | GI50 [57]: > 100 µM (inactive) | GI50 [21]: > 100 µM (inactive) | GI50 [22]: > 100 µM (inactive) | GI50 [23]: > 100 µM (inactive) | GI50 [26]: > 100 µM (inactive) | GI50 [28]: > 100 µM (inactive) | GI50 [29]: > 100 µM (inactive) | GI50 [30]: > 100 µM (inactive) | GI50 [32]: > 100 µM (inactive) | GI50 [34]: > 100 µM (inactive) | GI50 [35]: > 100 µM (inactive) | GI50 [36]: > 100 µM (inactive) | GI50 [37]: > 100 µM (inactive) | GI50 [58]: > 100 µM (inactive) | GI50 [38]: > 100 µM (inactive) | GI50 [41]: > 100 µM (inactive) | GI50 [43]: > 100 µM (inactive) | GI50 [44]: > 100 µM (inactive) | GI50 [45]: > 100 µM | GI50 [46]: > 100 µM (inactive) | GI50 [47]: 81.8 µM (inactive) | GI50 [48]: > 100 µM (inactive) | GI50 [49]: > 100 µM (inactive) | GI50 [50]: > 100 µM (inactive) | GI50 [51]: > 100 µM (inactive) | GI50 [52]: > 100 µM (inactive) | GI50 [53]: > 100 µM (inactive) | GI50 [59]: > 100 µM (inactive) | GI50 [54]: > 100 µM (inactive)

COC(=O)C1CCc2c1c(=O)n1c([nH]c3ccccc31)c2C#N (configuration not stated)
GI50 [1]: > 100 µM (inactive) | GI50 [2]: 2.36 µM (inactive) | GI50 [55]: > 100 µM (inactive) | GI50 [3]: > 100 µM (inactive) | GI50 [4]: > 100 µM (inactive) | GI50 [5]: > 100 µM (inactive) | GI50 [6]: > 100 µM (inactive) | GI50 [8]: > 100 µM (inactive) | GI50 [9]: > 100 µM (inactive) | GI50 [10]: > 100 µM (inactive) | GI50 [11]: > 100 µM (inactive) | GI50 [12]: > 100 µM (inactive) | GI50 [13]: > 100 µM (inactive) | GI50 [14]: > 100 µM (inactive) | GI50 [15]: > 100 µM (inactive) | GI50 [16]: > 100 µM (inactive) | GI50 [17]: > 100 µM (inactive) | GI50 [18]: > 100 µM (inactive) | GI50 [19]: > 100 µM (inactive) | GI50 [57]: > 100 µM (inactive) | GI50 [21]: > 100 µM (inactive) | GI50 [22]: > 100 µM (inactive) | GI50 [23]: > 100 µM (inactive) | GI50 [24]: > 100 µM (inactive) | GI50 [25]: > 100 µM (inactive) | GI50 [26]: > 100 µM (inactive) | GI50 [27]: > 100 µM (inactive) | GI50 [28]: > 100 µM (inactive) | GI50 [29]: > 100 µM (inactive) | GI50 [30]: > 100 µM (inactive) | GI50 [31]: > 100 µM (inactive) | GI50 [32]: > 100 µM (inactive) | GI50 [33]: > 100 µM (inactive) | GI50 [34]: > 100 µM (inactive) | GI50 [35]: > 100 µM (inactive) | GI50 [36]: > 100 µM (inactive) | GI50 [58]: > 100 µM (inactive) | GI50 [38]: > 100 µM (inactive) | GI50 [39]: > 100 µM (inactive) | GI50 [40]: > 100 µM (inactive) | GI50 [41]: > 100 µM (inactive) | GI50 [42]: > 100 µM (inactive) | GI50 [43]: > 100 µM (inactive) | GI50 [44]: > 100 µM (inactive) | GI50 [45]: > 100 µM | GI50 [46]: > 100 µM (inactive) | GI50 [47]: > 100 µM (inactive) | GI50 [48]: > 100 µM (inactive) | GI50 [49]: > 100 µM (inactive) | GI50 [50]: > 100 µM (inactive) | GI50 [51]: > 100 µM (inactive) | GI50 [52]: > 100 µM (inactive) | GI50 [53]: > 100 µM (inactive) | GI50 [59]: > 100 µM (inactive) | GI50 [54]: > 100 µM (inactive)
